Results on two compounds are retold here after patent US7034041B2 (priority 2000, dated 2006).

Where a name gives a salt, the structure may show the parent alone.

For this assay, the target named is (+)-MK801 binding site of the ionotropic NMDA receptor. Further details: species or system rat.

`Clc1ccccc1C1=CCN(C2(c3ccccc3)CCCCC2)CC1` [Example 11, 4-(2-chlorophenyl)-1-(1-phenylcyclohexyl)-1,2,3,6-tetrahydropyridine hydrochloride] displayed a Ki of 2.8 µM.

In the case of `Cc1ccccc1C1=CCN(C2(c3ccccc3)CCCCC2)CC1` [Example 7, 4-(2-methylphenyl)-1-(1-phenylcyclohexyl)-1,2,3,6-tetrahydropyridine hydrochloride], the affinity corresponds to a Ki of 5.3 µM.
